Literature values, collected in patent publication US20070281927A1, “Anti-inflammatory and analgesic compositions and related methods” (priority 2006, published 2007).

Key:
[1] = not given; remark: listed apart in the source

Cc1cnc(NC(=O)C2=C(O)c3ccccc3S(=O)(=O)N2C)s1 [Meloxicam, 4-hydroxy-2-methyl-N-(5-methyl-2-thiazolyl-)-2H-1,2-benzothiazine-3-carboxamide 1,1-dioxide]
time to maximum plasma concentration (after oral administration, many individuals): ≥ 5 h | time of second meloxicam concentration peak (post-dose, suggests gastrointestinal recirculation): twelve to fourteen | bioavailability (single 30 mg oral dose compared to 30 mg intravenous bolus injection): 89% | solubility in acidic or neutral mediums ([1]; acidic or neutral mediums): low solubility | solubility at the acidic pH range of the upper gastrointestinal tract ([1]; acidic pH range of the upper gastrointestinal tract): poorly soluble | solubility in water ([1]; water): practically insoluble
